From PubChem BioAssay AID1963972 (Molecular Pharmacology Branch, DTP, NCI, 2024)

Test system: 945468-187-T-J2-PDC spheroids viability
Experiment: Anticancer human tumor 945468-187-T-J2-PDC patient-derived rectal carcinoma cell line growth inhibition [PI3K]
Conditions: spheroids with HUVEC and MSC; for IC50: curve of first compound; for viability, T/C: stronger effect = lower value; active = viability on the fitted dose curve at most 10% of control; inactive = the rest
Method in brief: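 Complex 3D spheroids (cancer cells + endothelial HUVEC + mesenchymal stem cells); drug pairs of targeted agent x inavolisib/alpelisib/duvelisib/copanlisib; half-log series from ~Cmax, max 10 microM if Cmax unknown; endpoint viability.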

[1] = second compound 0.0316 µM, first compound 0.0316 µM
[2] = second compound 0.0316 µM, first compound 0.1 µM
[3] = second compound 0.0316 µM, first compound 0.316 µM
[4] = second compound 0.0316 µM, first compound 1 µM
[5] = second compound 0.0316 µM, first compound 3.16 µM
[6] = second compound 0.0316 µM, first compound 10 µM
[7] = second compound 0.1 µM, first compound 0.0316 µM
[8] = second compound 0.1 µM, first compound 0.1 µM
[9] = second compound 0.1 µM, first compound 0.316 µM
[10] = second compound 0.1 µM, first compound 1 µM
[11] = second compound 0.1 µM, first compound 3.16 µM
[12] = second compound 0.1 µM, first compound 10 µM
[13] = second compound 0.316 µM, first compound 0.0316 µM
[14] = second compound 0.316 µM, first compound 0.1 µM
[15] = second compound 0.316 µM, first compound 0.316 µM
[16] = second compound 0.316 µM, first compound 1 µM
[17] = second compound 0.316 µM, first compound 3.16 µM
[18] = second compound 0.316 µM, first compound 10 µM
[19] = second compound 1 µM, first compound 0.0316 µM
[20] = second compound 1 µM, first compound 0.1 µM
[21] = second compound 1 µM, first compound 0.316 µM
[22] = second compound 1 µM, first compound 1 µM
[23] = second compound 1 µM, first compound 3.16 µM
[24] = second compound 1 µM, first compound 10 µM
[25] = second compound 3.16 µM, first compound 0.0316 µM
[26] = second compound 3.16 µM, first compound 0.1 µM
[27] = second compound 3.16 µM, first compound 0.316 µM
[28] = second compound 3.16 µM, first compound 1 µM
[29] = second compound 3.16 µM, first compound 3.16 µM
[30] = second compound 3.16 µM, first compound 10 µM
[31] = second compound 10 µM, first compound 0.0316 µM
[32] = second compound 10 µM, first compound 0.1 µM
[33] = second compound 10 µM, first compound 0.316 µM
[34] = second compound 10 µM, first compound 1 µM
[35] = second compound 10 µM, first compound 3.16 µM
[36] = second compound 10 µM, first compound 10 µM
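Note: spheroids exposed to compounds for seven days before reading.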

CC(Cn1ccc(-c2ccc(C#N)c(Cl)c2)n1)NC(=O)c1cc(C(C)O)[nH]n1 (stereo unspecified) + CC(Nc1ncnc2nc[nH]c12)c1cc2cccc(Cl)c2c(=O)n1-c1ccccc1
> 10 µM: IC50 (second compound 0.0316 µM) | IC50 (second compound 0.1 µM) | IC50 (second compound 0.316 µM) | IC50 (second compound 1 µM) | IC50 (second compound 3.16 µM) | IC50 (second compound 10 µM)
inactive: viability, T/C [1] 99.9% | viability, T/C [2] 75.6% | viability, T/C [3] 108% | viability, T/C [4] 104% | viability, T/C [5] 99.9% | viability, T/C [6] 89.3% | viability, T/C [7] 128% | viability, T/C [8] 105% | viability, T/C [9] 106% | viability, T/C [10] 95.3% | viability, T/C [11] 117% | viability, T/C [12] 127% | viability, T/C [13] 111% | viability, T/C [14] 86.3% | viability, T/C [15] 87% | viability, T/C [16] 89.3% | viability, T/C [17] 91% | viability, T/C [18] 91.6% | viability, T/C [19] 87.2% | viability, T/C [20] 97.8% | viability, T/C [21] 78.4% | viability, T/C [22] 88.9% | viability, T/C [23] 82.6% | viability, T/C [24] 106% | viability, T/C [25] 92.7% | viability, T/C [26] 94.1% | viability, T/C [27] 103% | viability, T/C [28] 89.6% | viability, T/C [29] 92.3% | viability, T/C [30] 85.3% | viability, T/C [31] 113% | viability, T/C [32] 104% | viability, T/C [33] 88.7% | viability, T/C [34] 111% | viability, T/C [35] 109% | viability, T/C [36] 108%

Cn1ncc(Cl)c1-c1cc(C(=O)NC(CN)Cc2cccc(F)c2)sc1Cl (stereo unspecified) + CC(Nc1ncnc2nc[nH]c12)c1cc2cccc(Cl)c2c(=O)n1-c1ccccc1
> 10 µM: IC50 (second compound 0.0316 µM) | IC50 (second compound 0.1 µM) | IC50 (second compound 0.316 µM) | IC50 (second compound 1 µM) | IC50 (second compound 3.16 µM) | IC50 (second compound 10 µM)
inactive: viability, T/C [1] 97.5% | viability, T/C [2] 89.3% | viability, T/C [3] 96.3% | viability, T/C [4] 91.5% | viability, T/C [5] 83.9% | viability, T/C [6] 59.2% | viability, T/C [7] 91.1% | viability, T/C [8] 93.3% | viability, T/C [9] 129% | viability, T/C [10] 91.7% | viability, T/C [11] 93.2% | viability, T/C [12] 59.8% | viability, T/C [13] 90.6% | viability, T/C [14] 122% | viability, T/C [15] 104% | viability, T/C [16] 105% | viability, T/C [17] 84.2% | viability, T/C [18] 65.5% | viability, T/C [19] 99% | viability, T/C [20] 115% | viability, T/C [21] 106% | viability, T/C [22] 98.1% | viability, T/C [23] 77.8% | viability, T/C [24] 73.3% | viability, T/C [25] 83.3% | viability, T/C [26] 103% | viability, T/C [27] 92.5% | viability, T/C [28] 71% | viability, T/C [29] 81.8% | viability, T/C [30] 61% | viability, T/C [31] 99.6% | viability, T/C [32] 99.6% | viability, T/C [33] 90.6% | viability, T/C [34] 94.2% | viability, T/C [35] 74.4% | viability, T/C [36] 70.1%

Cn1nccc1Nc1nccc(-c2ccn(C(CO)c3ccc(Cl)c(F)c3)c(=O)c2)n1 (stereo unspecified) + CC(Nc1ncnc2nc[nH]c12)c1cc2cccc(Cl)c2c(=O)n1-c1ccccc1
inactive: viability, T/C [1] 107% | viability, T/C [2] 91.4% | viability, T/C [3] 92% | viability, T/C [4] 115% | viability, T/C [5] 101% | viability, T/C [6] 78.5% | viability, T/C [7] 76.1% | viability, T/C [8] 86.5% | viability, T/C [9] 102% | viability, T/C [10] 120% | viability, T/C [11] 101% | viability, T/C [12] 72.7% | viability, T/C [13] 95.2% | viability, T/C [14] 85.6% | viability, T/C [15] 83.1% | viability, T/C [16] 98.7% | viability, T/C [17] 84.2% | viability, T/C [18] 71.1% | viability, T/C [19] 99.3% | viability, T/C [20] 100% | viability, T/C [21] 89.4% | viability, T/C [22] 103% | viability, T/C [23] 96.2% | viability, T/C [24] 75.7% | viability, T/C [25] 88.2% | viability, T/C [26] 80.8% | viability, T/C [27] 83.6% | viability, T/C [28] 125% | viability, T/C [29] 140% | viability, T/C [30] 68.4% | viability, T/C [31] 135% | viability, T/C [32] 115% | viability, T/C [33] 109% | viability, T/C [34] 110% | viability, T/C [35] 91.9% | viability, T/C [36] 70.5%
> 10 µM: IC50 (second compound 0.0316 µM) | IC50 (second compound 0.1 µM) | IC50 (second compound 0.316 µM) | IC50 (second compound 1 µM) | IC50 (second compound 3.16 µM) | IC50 (second compound 10 µM)
